{
  "source": "patent US11517574B2",
  "about": "(priority 2017, dated 2022)",
  "key": {"[1]": {"test": "Suspension of milled linezolid Form II and Form III in poloxamer vehicle", "assay_type": "physicochemical", "conditions": "50 mg in one mL poloxamer vehicle, manual shaking one minute", "protocol": "50 mg of each form was weighed and one mL of poloxamer vehicle was added. The particles were re-suspended by manual shaking for one minute."}, "[2]": {"test": "Particle size distribution by laser diffraction", "assay_type": "physicochemical", "conditions": "dispersive pressure 3 bar", "source_text": "Different crystal forms of linezolid were chosen and tested for their feasibility of suspension. Two crystal modifications (polymorphs) of Linezolid: Form II (FII) and Form III (FIII) were obtained from Symed labs Ltd (India). Approximately, 1 g each of FII and FIII was jet milled using a LaboMill jet miller (F.P.S. Food and Pharma Systems s.r.l, Italy) with an injection line pressure at 7 bar and the grind line at 4 bar. The particle size distribution of the raw and air-jet milled material was analyzed by laser diffraction (Sympatec GmbH, Helos Disperse). 5 mg of each sample was placed in a dry powder disperser (RODOS/M). A reference measurement was taken before running each sample for 5 sec at 2% optical concentration. The results were obtained at a pressure of 3 bars using lenses, R1 (0.18-0.35 μm) and R2 (0.25/0.45-87.5 μm) (Table 4). The data was collected using HELOS sensor and analyzed using Windox5 software.\nThe particle size distribution of the raw and air-jet milled material was analyzed by laser diffraction (Sympatec GmbH, Helos Disperse). The data on the size distribution for unmilled powder (R1) and milled powder (R4) were collected and analyzed. Air jet milling reduced the particle size from D10 4 to 6 μm (D10, 10% of the mass of the sample is comprised of particles with diameter less than this range) and D90 40 to 50 μm (D90, 90% of the mass of the sample is comprised of particles with is diameter less than this range) particle size distribution to a D10 0.4 to 0.50 μm and D90 4 to 5 μm."}, "[3]": {"tested_on": "Gram-positive bacteria", "conditions": "cited from earlier work"}, "[4]": {"test": "Dry heat sterilization: appearance and chemical stability (UPLC)"}, "[5]": {"test": "Gamma irradiation: appearance and chemical stability (UPLC)"}, "[6]": {"conditions": "Nitrogen, no irradiation (—), Cold"}, "[7]": {"conditions": "Nitrogen, no irradiation (—), RT"}},
  "data": [
    {"molecule": "CC(=O)NC[C@H]1CN(c2ccc(N3CCOCC3)c(F)c2)C(=O)O1", "note": "[FIII]", "values": [
      {"measurement": "Suspension behaviour of air jet milled particles", "setting": "[1]; listed as Form III", "result": "formed lumps and were not evenly distributed"},
      {"measurement": "Particle size distribution X10", "setting": "[2]; Jet milled", "result": "0.63 ± 0.01", "unit": "μm"},
      {"measurement": "Particle size distribution X50", "setting": "[2]; Jet milled", "result": "2.06 ± 0.02", "unit": "μm"},
      {"measurement": "Particle size distribution X90", "setting": "[2]; Jet milled", "result": "4.50 ± 0.12", "unit": "μm"},
      {"measurement": "VMD (Volume mean diameter in μm)", "setting": "[2]; Jet milled", "result": 2.38, "unit": "μm"},
      {"measurement": "Particle size distribution X10", "setting": "[2]; Raw (pre-milled)", "result": 1.03, "unit": "μm"},
      {"measurement": "Particle size distribution X50", "setting": "[2]; Raw (pre-milled)", "result": 4.33, "unit": "μm"},
      {"measurement": "Particle size distribution X90", "setting": "[2]; Raw (pre-milled)", "result": 11.46, "unit": "μm"},
      {"measurement": "VMD (Volume mean diameter in μm)", "setting": "[2]; Raw (pre-milled)", "result": 5.52, "unit": "μm"}
    ]},
    {"molecule": "CC(=O)NC[C@H]1CN(c2ccc(N3CCOCC3)c(F)c2)C(=O)O1", "note": "[Linezolid, (S)—N-[[3-[3-fluoro-4-(4-morpholinyl)phenyl]-2-oxo-5-oxazolidinyl]methyl] acetamide]", "values": [
      {"measurement": "MIC", "setting": "[3]", "result": 4, "unit": "µg/mL"}
    ]},
    {"molecule": "CC(=O)NC[C@H]1CN(c2ccc(N3CCOCC3)c(F)c2)C(=O)O1", "note": "[FII, (S)—N-[[3-[3-fluoro-4-(4-morpholinyl)phenyl]-2-oxo-5-oxazolidinyl]methyl] acetamide]", "values": [
      {"measurement": "Appearance", "setting": "[4]; dry heat 120° C., 20 hr", "result": "Powder"},
      {"measurement": "Chemical Stability % expected parent (2-8° C. (control) t = 0)", "setting": "[4]; dry heat 120° C., 20 hr", "result": 100, "unit": "%"},
      {"measurement": "Appearance", "setting": "[4]; dry heat 120° C., 50 hr", "result": "Powder"},
      {"measurement": "Chemical Stability % expected parent (2-8° C. (control) t = 0)", "setting": "[4]; dry heat 120° C., 50 hr", "result": 99, "unit": "%"},
      {"measurement": "Appearance", "setting": "[4]; dry heat 130° C., 8 hr", "result": "Yellow"},
      {"measurement": "Chemical Stability % expected parent (2-8° C. (control) t = 0)", "setting": "[4]; dry heat 130° C., 8 hr", "result": 39, "unit": "%"},
      {"measurement": "Appearance", "setting": "[4]; dry heat 130° C., 20 hr", "result": "Yellow"},
      {"measurement": "Chemical Stability % expected parent (2-8° C. (control) t = 0)", "setting": "[4]; dry heat 130° C., 20 hr", "result": 26, "unit": "%"},
      {"measurement": "Appearance", "setting": "[4]; dry heat 130° C., 50 hr", "result": "Yellow"},
      {"measurement": "Chemical Stability % expected parent (2-8° C. (control) t = 0)", "setting": "[4]; dry heat 130° C., 50 hr", "result": 19, "unit": "%"},
      {"measurement": "Appearance", "setting": "[4]; dry heat 140° C., 4 hr", "result": "Yellow"},
      {"measurement": "Chemical Stability % expected parent (2-8° C. (control) t = 0)", "setting": "[4]; dry heat 140° C., 4 hr", "result": 52, "unit": "%"},
      {"measurement": "Appearance", "setting": "[4]; dry heat 140° C., 8 hr", "result": "Powder"},
      {"measurement": "Chemical Stability % expected parent (2-8° C. (control) t = 0)", "setting": "[4]; dry heat 140° C., 8 hr", "result": 97, "unit": "%"},
      {"measurement": "Appearance", "setting": "[4]; dry heat 140° C., 20 hr", "result": "Yellow"},
      {"measurement": "Chemical Stability % expected parent (2-8° C. (control) t = 0)", "setting": "[4]; dry heat 140° C., 20 hr", "result": 17, "unit": "%"},
      {"measurement": "Appearance", "setting": "[4]; dry heat 160° C., 2 hr", "result": "Yellow"},
      {"measurement": "Chemical Stability % expected parent (2-8° C. (control) t = 0)", "setting": "[4]; dry heat 160° C., 2 hr", "result": 16, "unit": "%"},
      {"measurement": "Suspension behaviour of air jet milled particles", "setting": "[1]", "result": "dispersed uniformly"},
      {"measurement": "Particle size distribution X10", "setting": "[2]; Jet milled", "result": "0.61 ± 0.01", "unit": "μm"},
      {"measurement": "Particle size distribution X50", "setting": "[2]; Jet milled", "result": "1.79 ± 0.03", "unit": "μm"},
      {"measurement": "Particle size distribution X90", "setting": "[2]; Jet milled", "result": "3.95 ± 0.04", "unit": "μm"},
      {"measurement": "VMD (Volume mean diameter in μm)", "setting": "[2]; Jet milled", "result": 2.07, "unit": "μm"},
      {"measurement": "Particle size distribution X10", "setting": "[2]; Raw (pre-milled)", "result": 0.94, "unit": "μm"},
      {"measurement": "Particle size distribution X50", "setting": "[2]; Raw (pre-milled)", "result": 3.79, "unit": "μm"},
      {"measurement": "Particle size distribution X90", "setting": "[2]; Raw (pre-milled)", "result": 44.75, "unit": "μm"},
      {"measurement": "VMD (Volume mean diameter in μm)", "setting": "[2]; Raw (pre-milled)", "result": 14.70, "unit": "μm"},
      {"measurement": "Stability % 25° C. day 28", "setting": "[5]; Air, 15 KGy, Cold", "result": 99.4, "unit": "%"},
      {"measurement": "Stability % 40° C. day 28", "setting": "[5]; Air, 15 KGy, Cold", "result": 98.0, "unit": "%"},
      {"measurement": "Stability % t = 0", "setting": "[5]; Air, 15 KGy, Cold", "result": 99, "unit": "%"},
      {"measurement": "Stability % 25° C. day 28", "setting": "[5]; Air, 15 KGy, RT", "result": 99.4, "unit": "%"},
      {"measurement": "Stability % 40° C. day 28", "setting": "[5]; Air, 15 KGy, RT", "result": 99.1, "unit": "%"},
      {"measurement": "Stability % t = 0", "setting": "[5]; Air, 15 KGy, RT", "result": 99.5, "unit": "%"},
      {"measurement": "Stability % 25° C. day 28", "setting": "[5]; Air, 25 KGy, Cold", "result": 99.6, "unit": "%"},
      {"measurement": "Stability % 40° C. day 28", "setting": "[5]; Air, 25 KGy, Cold", "result": 99.7, "unit": "%"},
      {"measurement": "Stability % t = 0", "setting": "[5]; Air, 25 KGy, Cold", "result": 100, "unit": "%"},
      {"measurement": "Stability % 25° C. day 28", "setting": "[5]; Air, 25 KGy, RT", "result": 100, "unit": "%"},
      {"measurement": "Stability % 40° C. day 28", "setting": "[5]; Air, 25 KGy, RT", "result": 98.9, "unit": "%"},
      {"measurement": "Stability % t = 0", "setting": "[5]; Air, 25 KGy, RT", "result": 100, "unit": "%"},
      {"measurement": "Stability % 25° C. day 28", "setting": "[5]; Air, no irradiation (—), Cold", "result": 98.1, "unit": "%"},
      {"measurement": "Stability % 40° C. day 28", "setting": "[5]; Air, no irradiation (—), Cold", "result": 99.6, "unit": "%"},
      {"measurement": "Stability % t = 0", "setting": "[5]; Air, no irradiation (—), Cold", "result": 100, "unit": "%"},
      {"measurement": "Stability % 25° C. day 28", "setting": "[5]; Air, no irradiation (—), RT", "result": 99.5, "unit": "%"},
      {"measurement": "Stability % 40° C. day 28", "setting": "[5]; Air, no irradiation (—), RT", "result": 100.1, "unit": "%"},
      {"measurement": "Stability % t = 0", "setting": "[5]; Air, no irradiation (—), RT", "result": 100, "unit": "%"},
      {"measurement": "Stability % 25° C. day 28", "setting": "[5]; Nitrogen, 15 KGy, Cold", "result": 97.5, "unit": "%"},
      {"measurement": "Stability % 40° C. day 28", "setting": "[5]; Nitrogen, 15 KGy, Cold", "result": 99.3, "unit": "%"},
      {"measurement": "Stability % t = 0", "setting": "[5]; Nitrogen, 15 KGy, Cold", "result": 100, "unit": "%"},
      {"measurement": "Stability % 25° C. day 28", "setting": "[5]; Nitrogen, 15 KGy, RT", "result": 98.8, "unit": "%"},
      {"measurement": "Stability % 40° C. day 28", "setting": "[5]; Nitrogen, 15 KGy, RT", "result": 99.5, "unit": "%"},
      {"measurement": "Stability % t = 0", "setting": "[5]; Nitrogen, 15 KGy, RT", "result": 100, "unit": "%"},
      {"measurement": "Stability % 25° C. day 28", "setting": "[5]; Nitrogen, 25 KGy, Cold", "result": 100, "unit": "%"},
      {"measurement": "Stability % 40° C. day 28", "setting": "[5]; Nitrogen, 25 KGy, Cold", "result": 99.3, "unit": "%"},
      {"measurement": "Stability % t = 0", "setting": "[5]; Nitrogen, 25 KGy, Cold", "result": 100, "unit": "%"},
      {"measurement": "Stability % 25° C. day 28", "setting": "[5]; Nitrogen, 25 KGy, RT", "result": 99.6, "unit": "%"},
      {"measurement": "Stability % 40° C. day 28", "setting": "[5]; Nitrogen, 25 KGy, RT", "result": 99.4, "unit": "%"},
      {"measurement": "Stability % t = 0", "setting": "[5]; Nitrogen, 25 KGy, RT", "result": 100.5, "unit": "%"},
      {"measurement": "Stability % 25° C. day 28", "setting": "[5]; [6]", "result": 99.6, "unit": "%"},
      {"measurement": "Stability % 40° C. day 28", "setting": "[5]; [6]", "result": 99, "unit": "%"},
      {"measurement": "Stability % t = 0", "setting": "[5]; [6]", "result": 100, "unit": "%"},
      {"measurement": "Stability % 25° C. day 28", "setting": "[5]; [7]", "result": 98.7, "unit": "%"},
      {"measurement": "Stability % 40° C. day 28", "setting": "[5]; [7]", "result": 97.7, "unit": "%"},
      {"measurement": "Stability % t = 0", "setting": "[5]; [7]", "result": 99.5, "unit": "%"}
    ]}
  ]
}
